According to ChEMBL document CHEMBL4665776, “Design, synthesis and SAR study of novel C2-pyrazolopyrimidine amides and amide isosteres as allosteric integrase inhibitors” (Bioorg Med Chem Lett, 2020):

Experiments:
[1] = system: Human immunodeficiency virus 1; experiment: Antiviral activity against wild type HIV-1 NL4-3 in human MT2 cells assessed as inhibition of viral out growth replication in presence of 40 mg/ml human serum albumin by HIV1 infectivity assay; format: functional, organism-based; details: Human immunodeficiency virus 1, NL4-3, MT2
[2] = Displacement of [3H]2-tert-butoxy-2-(2-methyl-4-p-tolylquinolin-3-yl)acetic acid from LEDGF binding site of HIV1 integrase; parameters: species or system Human immunodeficiency virus 1
[3] = Cytotoxicity against human MT2 cells; format: cell-based
[4] = system: Human immunodeficiency virus 1; experiment: Antiviral activity against wild type HIV-1 NL4-3 in human MT2 cells assessed as inhibition of viral out growth replication by HIV1 infectivity assay; format: functional, organism-based; details: Human immunodeficiency virus 1, NL4-3, MT2
[5] = Cmax in Sprague-Dawley rat at 1 mg/kg, iv; format: ADME, organism-based; parameters: route intravenous, dose 1 mg/kg; details: in vivo
[6] = Half life in Sprague-Dawley rat at 1 mg/kg, iv; format: ADME, organism-based; details: in vivo
[7] = Metabolic stability in rat liver microsomes assessed as parent compound remaining at 0.5 uM incubated for 10 mins; format: ADME, Microsome; details: read-out: Stabilty
[8] = Volume of distribution at steady state in Sprague-Dawley rat at 1 mg/kg, iv; format: ADME, organism-based; details: in vivo, read-out: Vdss
[9] = Clearance in Sprague-Dawley rat at 1 mg/kg, iv; format: ADME, organism-based; details: in vivo
[10] = system: Human immunodeficiency virus 1; experiment: Antiviral activity against HIV-1 NL4-3 harboring integrase A128T mutant in human MT2 cells assessed as inhibition of viral out growth replication by HIV1 infectivity assay; format: functional, organism-based; details: Human immunodeficiency virus 1, NL4-3, MT2

Structure (SMILES)	EC50 [1]	IC50 [2]	CC50 [3]	EC50 [4]	Cmax [5]	half-life [6]	remaining at 10 min, 0.5 µM [7]	Vd [8]	clearance [9]	EC50 [10]
CCc1cc(CNC(=O)c2cc3nc(C)c([C@H](OC(C)(C)C)C(=O)O)c(-c4cc(F)c5c(c4C)CCCO5)n3n2)ccc1F	325 nM	48 nM	> 40000 nM	15 nM	–	–	–	–	–	–
Cc1nc2cc(C(=O)NCCC3CCOCC3)nn2c(-c2cc(F)c3c(c2C)CCCO3)c1[C@H](OC(C)(C)C)C(=O)O	1770 nM	95 nM	> 40000 nM	173 nM	–	–	–	–	–	–
Cc1nc2cc(C(=O)NCc3ccc(F)c(C4CC4)c3)nn2c(-c2cc(F)c3c(c2C)CCCO3)c1[C@H](OC(C)(C)C)C(=O)O	361 nM	65 nM	> 40000 nM	14 nM	–	–	–	–	–	–
Cc1nc2cc(C(=O)NCC3CCOCC3)nn2c(-c2cc(F)c3c(c2C)CCCO3)c1[C@H](OC(C)(C)C)C(=O)O	2660 nM	420 nM	> 40000 nM	608 nM	–	–	–	–	–	–
Cc1nc2cc(C(=O)NCc3ccc(F)cc3)nn2c(-c2cc(F)c3c(c2C)CCCO3)c1[C@H](OC(C)(C)C)C(=O)O	591 nM	44 nM	> 40000 nM	50 nM	–	–	–	–	–	–
Cc1nc2cc(C(=O)NCCC(C)C)nn2c(-c2cc(F)c3c(c2C)CCCO3)c1[C@H](OC(C)(C)C)C(=O)O	122 nM	120 nM	> 40000 nM	18 nM	–	–	–	–	–	–
Cc1cc(CNC(=O)c2cc3nc(C)c([C@H](OC(C)(C)C)C(=O)O)c(-c4cc(F)c5c(c4C)CCCO5)n3n2)ccc1F	236 nM	42 nM	> 40000 nM	15 nM	7 nM	24 min	96%	0.6 L/kg	58 mL/min/kg	35 nM
Cc1nc2cc(C(=O)NCCC3CCCCC3)nn2c(-c2cc(F)c3c(c2C)CCCO3)c1[C@H](OC(C)(C)C)C(=O)O	143 nM	63 nM	> 40000 nM	60 nM	–	–	–	–	–	–
CNC(=O)c1cc(F)ccc1CNC(=O)c1cc2nc(C)c([C@H](OC(C)(C)C)C(=O)O)c(-c3cc(F)c4c(c3C)CCCO4)n2n1	> 20000 nM	42 nM	> 40000 nM	3200 nM	–	–	–	–	–	–
CCCNC(=O)c1cc2nc(C)c([C@H](OC(C)(C)C)C(=O)O)c(-c3cc(F)c4c(c3C)CCCO4)n2n1	2340 nM	1120 nM	> 40000 nM	262 nM	–	–	–	–	–	–
Cc1nc2cc(C(=O)NCCN3CCOCC3)nn2c(-c2cc(F)c3c(c2C)CCCO3)c1[C@H](OC(C)(C)C)C(=O)O	11700 nM	815 nM	> 40000 nM	5920 nM	–	–	–	–	–	–
Cc1nc2cc(-c3ncc(Cc4ccc(F)cc4)o3)nn2c(-c2cc(F)c3c(c2C)CCCO3)c1[C@H](OC(C)(C)C)C(=O)O	324 nM	21 nM	> 20000 nM	6 nM	–	–	–	–	–	56 nM
Cc1nc2cc(-c3ncc(Cc4ccc(F)cc4)s3)nn2c(-c2cc(F)c3c(c2C)CCCO3)c1[C@H](OC(C)(C)C)C(=O)O	34 nM	15 nM	> 20000 nM	1 nM	343 nM	90 min	100%	3.3 L/kg	53 mL/min/kg	59 nM
COc1cc(F)ccc1CNC(=O)c1cc2nc(C)c([C@H](OC(C)(C)C)C(=O)O)c(-c3cc(F)c4c(c3C)CCCO4)n2n1	347 nM	21 nM	> 40000 nM	53 nM	–	–	–	–	–	–
Cc1nc2cc(-c3ncc(-c4ccc(F)cc4)s3)nn2c(-c2cc(F)c3c(c2C)CCCO3)c1[C@H](OC(C)(C)C)C(=O)O	296 nM	195 nM	> 20000 nM	10 nM	–	–	–	–	–	–
Cc1nc2cc(-c3nc(Cc4ccc(F)cc4)no3)nn2c(-c2cc(F)c3c(c2C)CCCO3)c1[C@H](OC(C)(C)C)C(=O)O	2530 nM	117 nM	> 20000 nM	28 nM	–	–	–	–	–	–
Cc1nc2cc(C(=O)NCc3ccc(F)cc3-n3cncn3)nn2c(-c2cc(F)c3c(c2C)CCCO3)c1[C@H](OC(C)(C)C)C(=O)O	2600 nM	21 nM	> 40000 nM	508 nM	–	–	–	–	–	–
Cc1nc2cc(C(=O)NCCC(C)(C)C)nn2c(-c2cc(F)c3c(c2C)CCCO3)c1[C@H](OC(C)(C)C)C(=O)O	105 nM	84 nM	> 40000 nM	13 nM	79 nM	42 min	86%	0.6 L/kg	47 mL/min/kg	75 nM
Cc1nc2cc(C(=O)NCc3ccc(F)cc3N3CCCC3=O)nn2c(-c2cc(F)c3c(c2C)CCCO3)c1[C@H](OC(C)(C)C)C(=O)O	9470 nM	65 nM	> 40000 nM	2600 nM	–	–	–	–	–	–
Cc1nc2cc(C(=O)NCc3ccc(F)cc3O)nn2c(-c2cc(F)c3c(c2C)CCCO3)c1[C@H](OC(C)(C)C)C(=O)O	1520 nM	67 nM	> 40000 nM	37 nM	–	–	–	–	–	–
Cc1nc2cc(C(=O)NCc3ccc(F)cc3S(C)(=O)=O)nn2c(-c2cc(F)c3c(c2C)CCCO3)c1[C@H](OC(C)(C)C)C(=O)O	6570 nM	69 nM	> 40000 nM	118 nM	–	–	–	–	–	–
Cc1nc2cc(C(=O)NCC3CCCCC3)nn2c(-c2cc(F)c3c(c2C)CCCO3)c1[C@H](OC(C)(C)C)C(=O)O	342 nM	–	> 40000 nM	12 nM	–	–	–	–	–	–
CCCc1cc(CNC(=O)c2cc3nc(C)c([C@H](OC(C)(C)C)C(=O)O)c(-c4cc(F)c5c(c4C)CCCO5)n3n2)ccc1F	247 nM	108 nM	> 20000 nM	12 nM	–	–	–	–	–	–
COc1cc(CNC(=O)c2cc3nc(C)c([C@H](OC(C)(C)C)C(=O)O)c(-c4cc(F)c5c(c4C)CCCO5)n3n2)ccc1F	340 nM	–	> 20000 nM	20 nM	–	–	–	–	–	–
